Values after ≈ are worked out from the molar mass of the structure shown.
Assays:
M. bovis NCTC 10131 = assay: microbe, parasite or virus in culture; type: cell-based; conditions: NCTC10131, 144 h
M. suipneumoniae NB12 = assay: Anti-mycoplasmal activity in vitro MIC; type: cell-based; conditions: Mesomycoplasma hyopneumoniae, 144 h; M. suipneumoniae NB12; Friis broth, 0.9% agarose, 6 days 37° C.; read-out: M.I.C.
[1] = test system: M. bovigenitalium ATCC 14173; assay: Anti-mycoplasmal activity in vitro MIC; type: cell-based; conditions: 144 h
M. suipneumoniae HK (2) = assay: Anti-mycoplasmal activity in vitro MIC; type: cell-based; conditions: Mesomycoplasma hyopneumoniae, 144 h
M. suipneumoniae UCD 1 = assay: Anti-mycoplasmal activity in vitro MIC; type: cell-based; conditions: Mesomycoplasma hyopneumoniae, UCD1, 144 h
Strep. faecalis I = assay: Human bacteria MIC; type: cell-based; conditions: Enterococcus faecalis, nutrient agar, 5% chocolated horse blood, 18 hours 37° C.
Experimental: (§1) The values were determined by serial dilutions in nutrient agar with 5% chocolated horse blood after incubations for 18 hours at 37° C.

P. mirabilis 889 = assay: Human bacteria MIC; type: cell-based; conditions: Proteus mirabilis, 889, 18 h
Experimental: as §1

Strep. Group C 64/848 = assay: Human bacteria MIC; type: cell-based; conditions: 18 h
Experimental: as §1

Staph. aureus Russell = assay: Human bacteria MIC; type: cell-based; conditions: Staphylococcus aureus, 18 h
Experimental: as §1

Strep. pyogenes R80/421 = assay: Human bacteria MIC; type: cell-based; conditions: Streptococcus pyogenes, R80/421, 18 h
Experimental: as §1

[2] = test system: Pasteurella multocida 1633; assay: Human bacteria MIC; type: cell-based; conditions: Pasteurella multocida, 1633, 18 h
Experimental: as §1

[3] = test system: Corneybacterium xerosis 9755; assay: Human bacteria MIC; type: cell-based; conditions: 18 h
Experimental: as §1

Staph. aureus W2827 = assay: Human bacteria MIC; type: cell-based; conditions: Staphylococcus aureus; Staph. aureus W2827; nutrient agar, 5% chocolated horse blood, 18 hours 37° C.; read-out: M.I.C.
Experimental: as §1

E. Coli NCT 10418 = assay: Human bacteria MIC; type: cell-based; conditions: Escherichia coli, 18 h
Experimental: as §1

Strep Group B 2788 = assay: Human bacteria MIC; type: cell-based; conditions: 18 h
Experimental: as §1

Bacillus subtilis 6633 = assay: Human bacteria MIC; type: cell-based; conditions: Bacillus subtilis, 6633, 18 h
Experimental: as §1

[4] = test system: Haemophilus influenzae Q1; assay: Human bacteria MIC; type: cell-based; conditions: Haemophilus influenzae, Q1, 18 h
Experimental: as §1

[5] = test system: Neisseria catarralis 1502; assay: Human bacteria MIC; type: cell-based; conditions: Neisseria, 1502, 18 h
Experimental: as §1

K. aerogenes A = assay: Human bacteria MIC; type: cell-based; conditions: Klebsiella aerogenes, 18 h
Experimental: as §1

E. coli ESS = assay: Human bacteria MIC; type: cell-based; conditions: Escherichia coli, 18 h
Experimental: as §1

Strep. pneumoniae CN33 = assay: Human bacteria MIC; type: cell-based; conditions: Streptococcus pneumoniae, CN33, 18 h
Experimental: as §1

Staph. aureus Oxford = assay: Human bacteria MIC; type: cell-based; conditions: Staphylococcus aureus, 18 h
Experimental: as §1

Ps. aeruginosa 10662 = assay: Human bacteria MIC; type: cell-based; conditions: Pseudomonas aeruginosa, 10662, 18 h
Experimental: as §1

[6] = test system: M. hyosynoviae ATCC 25591; assay: Anti-mycoplasmal activity in vitro MIC; type: cell-based; conditions: 144 h
[7] = test system: M. suipneumoniae PW/C/210; assay: Anti-mycoplasmal activity in vitro MIC; type: cell-based; conditions: Mesomycoplasma hyopneumoniae, 144 h; M. suipneumoniae PW/C/210; Friis broth, 0.9% agarose, 6 days 37° C.; read-out: M.I.C.
M. suipneumoniae LABER = assay: Anti-mycoplasmal activity in vitro MIC; type: cell-based; conditions: Mesomycoplasma hyopneumoniae, 144 h; M. suipneumoniae LABER; Friis broth, 0.9% agarose, 6 days 37° C.; read-out: M.I.C.
M. hyorhinis ATCC 25021 = assay: Anti-mycoplasmal activity in vitro MIC; type: cell-based; conditions: Mesomycoplasma hyorhinis, ATCC25021, 144 h
[8] = Serum binding by ultrafiltration; type: in vitro ADME; conditions: pig, porcine serum, 8 mcg/ml, read-out: % bound to pig serum (converted)
Experimental: Serum binding was assessed by ultrafiltration of porcine serum containing compounds at 8 mcg/ml, and through an Amicon CF50A ultrafiltration cone. Separation of ultrafiltrate was achieved by centrifugation. Unbound concentrations of compound were measured in the ultrafiltrate by microbiological assay (B. subtilis ATCC 6633) against standards prepared in saline.

**Q.** With `C/C(=C\C(=O)OCCCCCC=NN(C)C)C[C@@H]1OC[C@H](C[C@@H]2O[C@H]2[C@@H](C)[C@H](C)O)[C@@H](O)[C@H]1O` [Example 6, 6-Dimethylhydrazonohexyl monate A] as the molecule, how does the MIC (M. bovis NCTC 10131) read?
**A.** ≤ 0.01 µg/mL

**Q.** What about the MIC (M. suipneumoniae NB12) of the same molecule?
**A.** 0.5 µg/mL (≈ 1.03 µM)

**Q.** What about the MIC [1] of the same molecule?
**A.** 0.025 µg/mL (≈ 0.0516 µM)

**Q.** And the MIC (M. suipneumoniae HK (2))?
**A.** 1 µg/mL (≈ 2.06 µM)

**Q.** And the MIC (M. suipneumoniae UCD 1)?
**A.** 1 µg/mL (≈ 2.06 µM)

**Q.** What about the MIC (Strep. faecalis I) of the same molecule?
**A.** > 100 µg/mL

**Q.** What about the MIC (P. mirabilis 889) of the same molecule?
**A.** > 100 µg/mL

**Q.** What about the MIC (Strep. Group C 64/848) of the same molecule?
**A.** 1 µg/mL (≈ 2.06 µM)

**Q.** And the MIC (Staph. aureus Russell)?
**A.** 0.25 µg/mL (≈ 0.516 µM)

**Q.** What about the MIC (Strep. pyogenes R80/421) of the same molecule?
**A.** 1 µg/mL (≈ 2.06 µM)

**Q.** And the MIC [2]?
**A.** 1 µg/mL (≈ 2.06 µM)

**Q.** And the MIC [3]?
**A.** > 100 µg/mL

**Q.** What about the MIC (Staph. aureus W2827) of the same molecule?
**A.** 0.25 µg/mL (≈ 0.516 µM)

**Q.** What about the MIC (E. Coli NCT 10418) of the same molecule?
**A.** > 100 µg/mL

**Q.** What about the MIC (Strep Group B 2788) of the same molecule?
**A.** 1 µg/mL (≈ 2.06 µM)

**Q.** What about the MIC (Bacillus subtilis 6633) of the same molecule?
**A.** 5 µg/mL (≈ 10.3 µM)

**Q.** What about the MIC [4] of the same molecule?
**A.** 0.5 µg/mL (≈ 1.03 µM)

**Q.** And the MIC [5]?
**A.** 0.05 µg/mL (≈ 0.103 µM)

**Q.** What about the MIC (K. aerogenes A) of the same molecule?
**A.** > 100 µg/mL

**Q.** What about the MIC (E. coli ESS) of the same molecule?
**A.** 5 µg/mL (≈ 10.3 µM)

**Q.** What about the MIC (Strep. pneumoniae CN33) of the same molecule?
**A.** 1 µg/mL (≈ 2.06 µM)

**Q.** What about the MIC (Staph. aureus Oxford) of the same molecule?
**A.** 0.1 µg/mL (≈ 0.206 µM)

**Q.** What about the MIC (Ps. aeruginosa 10662) of the same molecule?
**A.** > 100 µg/mL

**Q.** What about the MIC [6] of the same molecule?
**A.** 0.1 µg/mL (≈ 0.206 µM)

**Q.** And the MIC [7]?
**A.** 0.5 µg/mL (≈ 1.03 µM)

**Q.** What about the MIC (M. suipneumoniae LABER) of the same molecule?
**A.** 0.5 µg/mL (≈ 1.03 µM)

**Q.** What about the MIC (M. hyorhinis ATCC 25021) of the same molecule?
**A.** 0.25 µg/mL (≈ 0.516 µM)

**Q.** And the fraction unbound [8]?
**A.** 0.239
